System: MV-4-11 cells
Experiment: Gene expression microarray analysis (Affymetrix PrimeView) and GSEA
Type: cell-based, human
Design: RFU PODN (11730768_x_at) / Fold change /veh PODN (11730768_x_at) / RFU LINC00158 (11744669_a_at) / Fold change /veh LINC00158 (11744669_a_at) / RFU DUSP10 (11751237_a_at) / Fold change /veh DUSP10 (11751237_a_at) / RFU ID3 (11757404_x_at) / Fold change /veh ID3 (11757404_x_at) / RFU PLEKHG5 (11737974_s_at) / Fold change /veh PLEKHG5 (11737974_s_at) / RFU LRRC4B (11730491_at) / Fold change /veh LRRC4B (11730491_at) / RFU GIMAP4 (11747438_a_at) / Fold change /veh GIMAP4 (11747438_a_at) / RFU KRT8 (11758183_x_at) / Fold change /veh KRT8 (11758183_x_at) / RFU CNN1 (11734310_a_at) / Fold change /veh CNN1 (11734310_a_at) / RFU VPS37D (11726825_at) / Fold change /veh VPS37D (11726825_at) / RFU C10orf10 (11716522_x_at) / Fold change /veh C10orf10 (11716522_x_at) / RFU KIR2DL2 /// KIR2DL4 /// KIR2DL5A /// KIR2DL5B /// KIR2DS1 /// KIR2DS2 /// KIR2DS3 /// KIR2DS4 /// KIR3DL3 /// KIR3DL3 /// KIR3DS1 (11738374_at) / Fold change /veh KIR2DL2 /// KIR2DL4 /// KIR2DL5A /// KIR2DL5B /// KIR2DS1 /// KIR2DS2 /// KIR2DS3 /// KIR2DS4 /// KIR3DL3 /// KIR3DL3 /// KIR3DS1 (11738374_at) / RFU C1QL1 (11718748_at) / Fold change /veh C1QL1 (11718748_at) / RFU TMPRSS4 (11747572_a_at) / Fold change /veh TMPRSS4 (11747572_a_at) / RFU HAMP (11756126_x_at) / Fold change /veh HAMP (11756126_x_at) / RFU RNFT2 (11725882_a_at) / Fold change /veh RNFT2 (11725882_a_at) / RFU NR4A2 (11747474_a_at) / Fold change /veh NR4A2 (11747474_a_at) / RFU ABCC12 (11746883_a_at) / Fold change /veh ABCC12 (11746883_a_at) / RFU TMEM136 (11760407_x_at) / Fold change /veh TMEM136 (11760407_x_at) / RFU CLDN22 /// WWC2 (11732394_at) / Fold change /veh CLDN22 /// WWC2 (11732394_at) / RFU HLA-DPB1 (11760878_x_at) / Fold change /veh HLA-DPB1 (11760878_x_at) / RFU SPINT1 (11716480_a_at) / Fold change /veh SPINT1 (11716480_a_at) / RFU GAP43 (11754022_s_at) / Fold change /veh GAP43 (11754022_s_at) / RFU A4GNT (11735810_at) / Fold change /veh A4GNT (11735810_at) / RFU PRB3 (11715151_x_at) / Fold change /veh PRB3 (11715151_x_at) / RFU TUBB4B (11761932_at) / Fold change /veh TUBB4B (11761932_at) / RFU CAPN14 (11732068_a_at) / Fold change /veh CAPN14 (11732068_a_at) / RFU TMCC2 (11721928_a_at) / Fold change /veh TMCC2 (11721928_a_at) / RFU IRGQ (11745062_a_at) / Fold change /veh IRGQ (11745062_a_at) / RFU FAM174B (11720279_a_at) / Fold change /veh FAM174B (11720279_a_at) / RFU TMPRSS4 (11748680_a_at) / Fold change /veh TMPRSS4 (11748680_a_at) / RFU FAM212B (11763350_a_at) / Fold change /veh FAM212B (11763350_a_at) / RFU PLEKHG5 (11743358_a_at) / Fold change /veh PLEKHG5 (11743358_a_at) / RFU ZSCAN30 (11745921_a_at) / Fold change /veh ZSCAN30 (11745921_a_at) / RFU CMKLR1 (11741424_a_at) / Fold change /veh CMKLR1 (11741424_a_at) / RFU LOC101060620 /// MAPK8IP1 (11723275_at) / Fold change /veh LOC101060620 /// MAPK8IP1 (11723275_at) / RFU SPTSSB (11747773_x_at) / Fold change /veh SPTSSB (11747773_x_at) / RFU PRSS12 (11739890_at) / Fold change /veh PRSS12 (11739890_at) / RFU BIN1 (11741810_x_at) / Fold change /veh BIN1 (11741810_x_at) / RFU WNT11 (11732464_a_at) / Fold change /veh WNT11 (11732464_a_at) / RFU C10orf10 (11716521_a_at) / Fold change /veh C10orf10 (11716521_a_at) / RFU C5orf56 (11738089_at) / Fold change /veh C5orf56 (11738089_at) / RFU CYB561 (11721691_x_at) / Fold change /veh CYB561 (11721691_x_at) / RFU ANKRD19P (11752326_a_at) / Fold change /veh ANKRD19P (11752326_a_at) / RFU OR2T12 /// OR2T33 /// OR2T8 (11738714_s_at) / Fold change /veh OR2T12 /// OR2T33 /// OR2T8 (11738714_s_at) / RFU VCAN (11748164_a_at) / Fold change /veh VCAN (11748164_a_at) / RFU JSRP1 (11732532_at) / Fold change /veh JSRP1 (11732532_at) / RFU KRTAP10-11 (11738290_x_at) / Fold change /veh KRTAP10-11 (11738290_x_at) / RFU MYO3A (11730013_a_at) / Fold change /veh MYO3A (11730013_a_at) / RFU EBF3 (11725865_a_at) / Fold change /veh EBF3 (11725865_a_at) / RFU CAMK2N1 (11719241_x_at) / Fold change /veh CAMK2N1 (11719241_x_at) / RFU C5orf56 (11738088_a_at) / Fold change /veh C5orf56 (11738088_a_at) / RFU OLFML3 (11715873_a_at) / Fold change /veh OLFML3 (11715873_a_at) / RFU LOC100653217 /// NTM (11731650_a_at) / Fold change /veh LOC100653217 /// NTM (11731650_a_at) / RFU MAPK11 (11762145_a_at) / Fold change /veh MAPK11 (11762145_a_at) / RFU FIZ1 (11724087_x_at) / Fold change /veh FIZ1 (11724087_x_at) / RFU OASL (11726364_x_at) / Fold change /veh OASL (11726364_x_at) / RFU SOX15 (11748057_x_at) / Fold change /veh SOX15 (11748057_x_at) / RFU CD79A (11719716_a_at) / Fold change /veh CD79A (11719716_a_at) / RFU HIST1H1D (11736915_at) / Fold change /veh HIST1H1D (11736915_at) / RFU CASKIN2 (11723855_a_at) / Fold change /veh CASKIN2 (11723855_a_at) / RFU LOC730098 (11760151_x_at) / Fold change /veh LOC730098 (11760151_x_at) / RFU OR4N2 (11742367_at) / Fold change /veh OR4N2 (11742367_at) / RFU PRRT2 (11749266_a_at) / Fold change /veh PRRT2 (11749266_a_at) / RFU SNX32 (11753110_a_at) / Fold change /veh SNX32 (11753110_a_at) / RFU CDHR5 (11726645_a_at) / Fold change /veh CDHR5 (11726645_a_at) / RFU RCAN1 (11760418_a_at) / Fold change /veh RCAN1 (11760418_a_at) / RFU FAM167A (11723789_a_at) / Fold change /veh FAM167A (11723789_a_at) / RFU FAM26E (11764081_at) / Fold change /veh FAM26E (11764081_at) / RFU ISYNA1 (11749810_s_at) / Fold change /veh ISYNA1 (11749810_s_at) / RFU ACY1 (11761880_at) / Fold change /veh ACY1 (11761880_at) / RFU 11764098_at / Fold change /veh 11764098_at / RFU SAMD14 (11745864_x_at) / Fold change /veh SAMD14 (11745864_x_at) / RFU NPB (11741838_a_at) / Fold change /veh NPB (11741838_a_at) / RFU TMPRSS6 (11731388_a_at) / Fold change /veh TMPRSS6 (11731388_a_at) / RFU KRTAP10-2 (11738614_at) / Fold change /veh KRTAP10-2 (11738614_at) / RFU ARHGAP8 /// PRR5-ARHGAP8 (11727945_x_at) / Fold change /veh ARHGAP8 /// PRR5-ARHGAP8 (11727945_x_at) / RFU KRTAP5-7 /// NADSYN1 (11734609_at) / Fold change /veh KRTAP5-7 /// NADSYN1 (11734609_at) / RFU RASL12 (11751679_a_at) / Fold change /veh RASL12 (11751679_a_at) / RFU CDKN2B (11736163_a_at) / Fold change /veh CDKN2B (11736163_a_at) / RFU PRF1 (11729649_at) / Fold change /veh PRF1 (11729649_at) / RFU, ZNF638 /// ZNF638-IT1 / Fold change vs veh, ZNF638 /// ZNF638-IT1 / RFU, PANK3 / Fold change vs veh, PANK3 / RFU, SH3YL1 / Fold change vs veh, SH3YL1 / RFU, ZEB2 / Fold change vs veh, ZEB2 / RFU, NRIP1 / Fold change vs veh, NRIP1 / RFU, PTTG1IP / Fold change vs veh, PTTG1IP / RFU, CAPN2 / Fold change vs veh, CAPN2 / RFU, MED14 / Fold change vs veh, MED14 / RFU, SNORA58 / Fold change vs veh, SNORA58 / RFU, C1orf63 / Fold change vs veh, C1orf63 / RFU, LRRFIP1 / Fold change vs veh, LRRFIP1 / RFU, NDUFAF7 / Fold change vs veh, NDUFAF7 / RFU, SLC12A2 / Fold change vs veh, SLC12A2 / RFU, IBTK / Fold change vs veh, IBTK / RFU, ESF1 / Fold change vs veh, ESF1 / Fold change vs veh, TMEM50B / RFU, TAOK1 / Fold change vs veh, TAOK1 / RFU, ACBD3 / Fold change vs veh, ACBD3 / RFU, TMA16 / Fold change vs veh, TMA16 / RFU, RWDD3 / Fold change vs veh, RWDD3 / RFU, BCAT1 / Fold change vs veh, BCAT1 / RFU, EDEM3 / Fold change vs veh, EDEM3 / RFU, TMEM33 / Fold change vs veh, TMEM33 / RFU, WDR75 / Fold change vs veh, WDR75 / RFU, AHCTF1 / Fold change vs veh, AHCTF1 / RFU, TFRC / Fold change vs veh, TFRC / RFU, ZDHHC17 / Fold change vs veh, ZDHHC17 / RFU, NOM1 / Fold change vs veh, NOM1 / RFU, ARL8B / Fold change vs veh, ARL8B / RFU, ZBTB11 / Fold change vs veh, ZBTB11 / RFU, TAMM41 / Fold change vs veh, TAMM41 / RFU, KIAA1704 /// LOC100996395 / Fold change vs veh, KIAA1704 /// LOC100996395 / RFU, ING1 / Fold change vs veh, ING1 / RFU, TRMT61B / Fold change vs veh, TRMT61B / RFU, FUBP3 / Fold change vs veh, FUBP3 / RFU, TP53 / Fold change vs veh, TP53 / RFU, TNKS2 / Fold change vs veh, TNKS2 / RFU, ZFP14 / Fold change vs veh, ZFP14 / RFU, ACTR2 / Fold change vs veh, ACTR2 / RFU, PPP3R1 / Fold change vs veh, PPP3R1 / RFU, PIK3R1 / Fold change vs veh, PIK3R1 / RFU, HNRNPA1 / Fold change vs veh, HNRNPA1 / RFU, RNF170 / Fold change vs veh, RNF170 / RFU, ZNF28 / Fold change vs veh, ZNF28 / RFU, RNGTT / Fold change vs veh, RNGTT / RFU, OGT / Fold change vs veh, OGT / RFU, BRD1 / Fold change vs veh, BRD1 / RFU, MARS / Fold change vs veh, MARS / RFU, ZNF655 / Fold change vs veh, ZNF655 / RFU, FAHD1 / Fold change vs veh, FAHD1 / RFU, BDP1 / Fold change vs veh, BDP1 / RFU, LRRCC1 / Fold change vs veh, LRRCC1 / RFU, ARID1A / Fold change vs veh, ARID1A / RFU, ZNF146 / Fold change vs veh, ZNF146 / RFU, ZNF330 / Fold change vs veh, ZNF330 / RFU, GPN3 / Fold change vs veh, GPN3 / RFU, C9orf123 / Fold change vs veh, C9orf123 / RFU, N4BP2L2 / Fold change vs veh, N4BP2L2 / RFU, ARFIP1 / Fold change vs veh, ARFIP1 / RFU, FAM179B / Fold change vs veh, FAM179B / RFU, BCL10 / Fold change vs veh, BCL10 / RFU, UHRF1BP1L / Fold change vs veh, UHRF1BP1L / RFU, BET1 / Fold change vs veh, BET1 / RFU, CNOT2 / Fold change vs veh, CNOT2 / RFU, ZNF268 / Fold change vs veh, ZNF268 / Fold change vs veh, ZNF507 / RFU, DGCR2 / Fold change vs veh, DGCR2 / RFU, WDSUB1 / Fold change vs veh, WDSUB1 / Fold change vs veh, HSP90B1 /// MIR3652 / RFU, ADSS / Fold change vs veh, ADSS / RFU, GK / Fold change vs veh, GK / RFU, ZNF148 / Fold change vs veh, ZNF148 / RFU, TAF9 / Fold change vs veh, TAF9 / RFU, SLC1A5 / Fold change vs veh, SLC1A5 / RFU, SLMO2 / Fold change vs veh, SLMO2 / RFU, ABCC4 / Fold change vs veh, ABCC4 / RFU, LOC101060439 /// RAP1B / Fold change vs veh, LOC101060439 /// RAP1B / RFU, RFX7 / Fold change vs veh, RFX7 / RFU, GTPBP10 / Fold change vs veh, GTPBP10 / RFU, CNEP1R1 / Fold change vs veh, CNEP1R1 / RFU, BIVM-ERCC5 /// ERCC5 / Fold change vs veh, BIVM-ERCC5 /// ERCC5 / RFU, ILF3 / Fold change vs veh, ILF3 / RFU 11762660_at / Fold change /veh 11762660_at / RFU VCAN (11757783_s_at) / Fold change /veh VCAN (11757783_s_at) / RFU DDX43 (11728927_at) / Fold change /veh DDX43 (11728927_at) / RFU KRT8 (11758188_x_at) / Fold change /veh KRT8 (11758188_x_at) / RFU NKD1 (11759106_at) / Fold change /veh NKD1 (11759106_at) / RFU SRD5A1 (11742802_a_at) / Fold change /veh SRD5A1 (11742802_a_at) / RFU TPSAB1 /// TPSB2 (11721975_s_at) / Fold change /veh TPSAB1 /// TPSB2 (11721975_s_at) / RFU GSTM3 (11746129_a_at) / Fold change /veh GSTM3 (11746129_a_at) / RFU IL23R (11737362_x_at) / Fold change /veh IL23R (11737362_x_at) / RFU TMEM51 (11727254_a_at) / Fold change /veh TMEM51 (11727254_a_at) / RFU PIWIL2 (11732686_x_at) / Fold change /veh PIWIL2 (11732686_x_at) / RFU ORM1 (11744905_x_at) / Fold change /veh ORM1 (11744905_x_at) / RFU CCDC152 (11743942_at) / Fold change /veh CCDC152 (11743942_at) / RFU ECM1 (11717891_a_at) / Fold change /veh ECM1 (11717891_a_at) / RFU IL23R (11748794_a_at) / Fold change /veh IL23R (11748794_a_at) / RFU TNFAIP8L3 (11732012_x_at) / Fold change /veh TNFAIP8L3 (11732012_x_at) / RFU MBOAT4 (11741988_at) / Fold change /veh MBOAT4 (11741988_at) / RFU 11764193_at / Fold change /veh 11764193_at / RFU TMEM53 (11763286_at) / Fold change /veh TMEM53 (11763286_at) / RFU MAGEB2 (11727129_at) / Fold change /veh MAGEB2 (11727129_at) / RFU TMEM200A (11744735_a_at) / Fold change /veh TMEM200A (11744735_a_at) / RFU CCDC152 (11751479_a_at) / Fold change /veh CCDC152 (11751479_a_at) / RFU FAM211A (11726209_a_at) / Fold change /veh FAM211A (11726209_a_at) / RFU RGS16 (11746705_a_at) / Fold change /veh RGS16 (11746705_a_at) / RFU VCAN (11755009_s_at) / Fold change /veh VCAN (11755009_s_at) / RFU RHOB (11743442_s_at) / Fold change /veh RHOB (11743442_s_at) / RFU RGS16 (11720943_a_at) / Fold change /veh RGS16 (11720943_a_at) / RFU RGS16 (11720944_at) / Fold change /veh RGS16 (11720944_at) / RFU, VPS4B / Fold change vs veh, VPS4B / RFU, CREB1 / Fold change vs veh, CREB1 / RFU, DNAJC13 / Fold change vs veh, DNAJC13 / RFU, GNAQ / Fold change vs veh, GNAQ / RFU, CDK5R1 / Fold change vs veh, CDK5R1 / RFU, ZRANB3 / Fold change vs veh, ZRANB3 / RFU, CUL4A / Fold change vs veh, CUL4A / RFU, CCNY / Fold change vs veh, CCNY / RFU, UFL1 / Fold change vs veh, UFL1 / RFU, COG3 / Fold change vs veh, COG3 / RFU, DIAPH2 / Fold change vs veh, DIAPH2 / RFU, SKA2 / Fold change vs veh, SKA2 / RFU, AFF3 / Fold change vs veh, AFF3 / RFU, LMF1 / Fold change vs veh, LMF1 / RFU, IPO11 / Fold change vs veh, IPO11 / RFU, DFFB / Fold change vs veh, DFFB / RFU, FOXP1 / Fold change vs veh, FOXP1 / RFU, CARD8 / Fold change vs veh, CARD8 / RFU, STRN3 / Fold change vs veh, STRN3 / RFU, ADK / Fold change vs veh, ADK / RFU, RASSF2 / Fold change vs veh, RASSF2 / RFU, WIPF1 / Fold change vs veh, WIPF1 / RFU, LARP1B / Fold change vs veh, LARP1B / RFU, RASA1 / Fold change vs veh, RASA1 / RFU, RB1 / Fold change vs veh, RB1 / RFU, PPFIA1 / Fold change vs veh, PPFIA1 / RFU, MAT2A / Fold change vs veh, MAT2A / RFU, CCT5 / Fold change vs veh, CCT5 / RFU, WDR92 / Fold change vs veh, WDR92 / RFU, CUX1 / Fold change vs veh, CUX1 / RFU, TTC7A / Fold change vs veh, TTC7A / RFU, TMEM135 / Fold change vs veh, TMEM135 / RFU, DEPTOR / Fold change vs veh, DEPTOR / RFU, CPM / Fold change vs veh, CPM / RFU, DNAJB6 / Fold change vs veh, DNAJB6 / RFU, CACNA2D3 / Fold change vs veh, CACNA2D3 / RFU, DTX4 / Fold change vs veh, DTX4 / RFU, TFCP2 / Fold change vs veh, TFCP2 / RFU, GMCL1 /// GMCL1P1 / Fold change vs veh, GMCL1 /// GMCL1P1 / RFU, AEBP2 / Fold change vs veh, AEBP2 / RFU, SNHG1 /// SNORD22 /// SNORD25 /// SNORD26 /// SNORD27 /// SNORD28 /// SNORD29 /// SNORD31 / Fold change vs veh, SNHG1 /// SNORD22 /// SNORD25 /// SNORD26 /// SNORD27 /// SNORD28 /// SNORD29 /// SNORD31 / Fold change (Aza/veh), C12orf56 (ProbeSet 11735607_a_at) / Fold change (ACY-1035/veh), C12orf56 (ProbeSet 11735607_a_at) / Fold change (Aza/veh), FGFR1OP (ProbeSet 11751329_s_at) / Fold change (ACY-1035/veh), FGFR1OP (ProbeSet 11751329_s_at) / Fold change (Aza/veh), VPS36 (ProbeSet 11739960_a_at) / Fold change (ACY-1035/veh), VPS36 (ProbeSet 11739960_a_at) / RFU SYPL1 (11715823_x_at) / Fold change /veh SYPL1 (11715823_x_at) / RFU IGFBP7 (11715501_s_at) / Fold change /veh IGFBP7 (11715501_s_at) / RFU REEP3 (11722064_at) / Fold change /veh REEP3 (11722064_at) / RFU IGLL1 (11728026_x_at) / Fold change /veh IGLL1 (11728026_x_at): dose or concentration left out as unconfirmed
Conditions: MV-4-11 cells, 48 hours

## Nc1ccc(-c2cccs2)cc1NC(=O)c1ccc2c(c1)cc(C1CC1)n2CCN1CCOCC1 [ACY-1035]
  RFU CD79A (11719716_a_at): 10.45 RFU

From publication PMC5218480 (PLoS ONE, 2017)
